Assay results: PMC7251074, “Identification of Anti-tuberculosis Compounds From Aurone Analogs” (Frontiers in Microbiology, 2020)
Converted amounts (≈) assume the structure as drawn. Read-outs that look alike come from different tables or passages of the source.

What was measured:
[1] = test system: tdTomato-expressing Mtb CDC1551 strain; experiment: microbe, parasite or virus in culture; assay type: cell-based, Mycobacterium tuberculosis; conditions: aurones at 100 μM, 3 days co-incubation, tdTomato fluorescence intensity; for inhibition at 100 µM: Mycobacterium tuberculosis, 72 h, read-out: Inhibitory rate
HepG2 cells = experiment: MTT cell viability cytotoxicity assay, HepG2; assay type: cell-based, human; conditions: for IC50: Homo sapiens, HepG2, 48 h, read-out: IC50 HepG2; for SI (IC50/MIC) HepG2: IC50 HepG2 / MIC Mtb, 2880 min; for selectivity index: on all three cell lines (HepG2, Vero, THP-1)
Method: Cytotoxicities of the aurones were evaluated in Vero cells (ATCC), HepG2 (ATCC), and THP-1 cells (ATCC) using the standard microculture tetrazolium (MTT) cell viability assay. Media used for the Vero cells was DMEM supplemented with 10% calf serum; for HepG2 cells the media used was DMEM supplemented with 20% calf serum; and for THP-1 cells the media used was RPMI-1640 supplemented with 10% calf serum (HyClone Cosmic Calf, GE Lifesciences). Cells were seeded into a 96-well plate. For THP-1 cells, phorbol-12-myristate-13-acetate (PMA) was used to induce the monocytes to develop into macrophages for 3 days before the cytotoxicity assay. A series of two-fold dilutions of aurones or RIF were added into the cell culture media in microplates to determine the concentration that eliminated 50% of eukaryotic cell growth in a 2-days incubation. Cells without drug treatment were incubated with the vehicle buffer and served as negative controls (100% viable). Cells treated with digitonin (100 μg/mL) served as the positive controls. After a 2-days incubation, 10 μL of MTT reagent was loaded into each well, and incubated for 3 h at 37°C. Hundred microliter of detergent solution was then added into each well and the 96-well plates were incubated for 2 h. Absorbance of each sample in the 96-well plates was measured at […]. Viability of each drug-treated sample was calculated as the absorbance of the sample divided by the absorbance of the untreated sample multiplied by 100.
We determined MICs of the top six aurone leads (AA2A, AA8, 9501, 9504, 9505, and 9510) using the standard resazurin microtiter assay (REMA) ([Palomino et al., 2002]). The MIC was defined as the lowest drug concentration that prevented the color change of resazurin from blue to pink. The MICs for 9504, 9505, 9501, 9510, AA2A, and AA8 were 6.25, 12.5, 25, 25, 25, and 50 μM, respectively (Table 2). We evaluated the cytotoxic effects of aurones to human liver cells HepG2, primate kidney Vero cells and human monocyte THP-1 cells after a 2-days incubation using the microculture tetrazolium (MTT) cell viability assay. Concentration gradients of the selected aurones or RIF (as a control) were incubated with the three cell lines. We calculated half maximal inhibitory concentration (IC50) of aurones on these three cell lines. By comparing MICs with IC50, we calculated the selectivity index (SI) for each aurone lead as […].

[2] = test system: intracellular Mtb in THP-1 cell derived macrophages; experiment: Efficacy against intracellular Mtb in THP-1 derived macrophages; assay type: cell-based, Mycobacterium tuberculosis; conditions: for Mtb CFU compared to the initial intracellular Mtb load (0 h) / CFUs of intracellular Mtb at 48 h compared to before treatment (0 h): 48 h; for CFUs of intracellular Mtb at 48 h compared to before treatment (0 h): 25 and 50 μM
Method: Human monocyte THP-1 cells were seeded at 5 × 10^4 cells / well in 96-well tissue culture black plates with clear bottoms. PMA was used to induce the monocytes to develop into macrophages for 3 days before infection. The tdTomato-expressing Mtb strain was employed for cell infection at an MOI = 20. After a 3 h incubation of the Mtb strain with THP-1 cells, extracellular bacteria were removed by washing twice with the cell culture medium. 200 μL of cell culture medium containing either 25 or 50 μM aurones or 1X MICs of amikacin (AMI, 1 μg/mL), ethambutol (ETH, 0.5 μg/mL), RIF (0.4 μg/mL) and isoniazid (INH) (0.5 μg/mL) was added to each well in triplicate and incubated for 48 h. Infected cells treated with the vehicle buffer served as negative controls. Cells were then lysed and plated for CFU counting.
FIGURE 2 Aurones inhibit intracellular Mtb. (A) Growth ratios of samples treated with the aurone leads or control drugs compared to the growth ratio of untreated control. Growth ratio of each sample = FI of each sample at 48 h / FI of the same sample at 0 h. (B) CFUs of samples treated with the aurone leads or control drugs compared to the CFU of untreated control at 0 and 48 h. 25 and 50 μM of the aurone leads were incubated with the infected cells (MOI = 20) after removing extracellular bacteria. Positive controls: AMI (1 μg/mL), ETH (0.5 μg/mL), INH (0.5 μg/mL), and RIF (0.4 μg/mL). Data are means of three independent experiments ± S.D. *P < 0.05, **P < 0.01, ****P < 0.0001.

Mtb CDC1551 = experiment: Resazurin microtiter assay (REMA) for MICs; assay type: cell-based; conditions: Mycobacterium tuberculosis, CDC1551, 168 h
Vero cells = experiment: MTT cell viability cytotoxicity assay, Vero; assay type: cell-based, primate; conditions: for SI (IC50/MIC) Vero: IC50 Vero / MIC Mtb, 2880 min; for IC50: Primates, Vero, 48 h, read-out: IC50 Vero
THP-1 cells = experiment: MTT cell viability cytotoxicity assay, THP-1 derived macrophages; assay type: cell-based, human; conditions: for IC50: Homo sapiens, THP-1, 48 h, read-out: IC50 THP-1; for SI (IC50/MIC) THP-1: IC50 THP-1 / MIC Mtb, 2880 min
[3] = test system: purine nucleoside phosphorylase (PNP); experiment: Purine nucleoside phosphorylase counter-assay; assay type: biochemical; conditions: PNP 0.2 U, MESG 50 μM, potassium phosphate 10 mM
Method: FIGURE 4 AA2A and 9504 inhibit Mtb-Cs activity. (A) Assay to measure the ability of aurones to inhibit Cs of Mtb. (B) SDS-PAGE analysis of extracted rRv3227 (left) and rRv2540c (right). Lane 1: marker (PageRuler^M Unstained); 2: crude protein extracts; 3–5: samples eluted from Ni-column by 125, 250, and 500 mM imidazole, respectively; 6: the concentrated proteins eluted by 500 mM imidazole. (C) Evaluation of 9501, 9504, 9505, and 9510 inhibitory effects on Mtb-Cs activity. (D) Evaluation of AA2A and AA8 inhibitory effects on Mtb-Cs activity. Data are means of three independent experiments ± S.D. The reaction mixture comprised Mtb-Cs, various concentrations of aurone leads, EPSP ([…]), FMN (0.04 mM) and NADH (0.3 mM). The production of chorismate from the enzymatic reaction was determined by measuring Pi production using MESG (0.2 mM) and PNP (1 U). […] The reaction mixture comprised PNP (0.2 U), MESG (50 μM), potassium phosphate (10 mM), and aurones (50 μM for 9501, 9504, 9505, and 9510; 200 μM for AA2A and AA8). No significant differences (P > 0.05) were identified between each of the aurone-treated group and the positive control group. Data are means of three independent experiments ± S.D.

[4] = target: Mtb chorismate synthase (Mtb-Cs, Rv2540c) (Mycobacterium tuberculosis, UniProt P9WPY1); experiment: Mtb chorismate synthase activity assay (coupled, Pi production with MESG/PNP); assay type: biochemical; conditions: Pi production at A360, EPSP, FMN 0.04 mM, NADH 0.3 mM
[5] = test system: tdTomato-expressing Mtb in the lungs of BALB/c mice; assay type: in vivo, Mycobacterium tuberculosis; conditions: after a 12-days treatment
Mtb = test system: Mtb; parameters: method as in Jayaram et al., 2003; conditions: 10 mg/kg, 12 daily oral doses; ref Jayaram et al., 2003; cited from earlier work
[6] = MTT cell viability cytotoxicity assay, Vero; assay type: cell-based, primate; conditions: monkey, vero cells; MTT, 2-days incubation; read-out: IC50 Vero
[7] = REMA, 7 days incubation, lowest concentration preventing resazurin colour change, read-out: MIC
[8] = MTT, 2-days incubation, PMA-induced macrophages

Mtb chorismate synthase (Mtb-Cs, Rv2540c), sequence (P9WPY1 whole entry): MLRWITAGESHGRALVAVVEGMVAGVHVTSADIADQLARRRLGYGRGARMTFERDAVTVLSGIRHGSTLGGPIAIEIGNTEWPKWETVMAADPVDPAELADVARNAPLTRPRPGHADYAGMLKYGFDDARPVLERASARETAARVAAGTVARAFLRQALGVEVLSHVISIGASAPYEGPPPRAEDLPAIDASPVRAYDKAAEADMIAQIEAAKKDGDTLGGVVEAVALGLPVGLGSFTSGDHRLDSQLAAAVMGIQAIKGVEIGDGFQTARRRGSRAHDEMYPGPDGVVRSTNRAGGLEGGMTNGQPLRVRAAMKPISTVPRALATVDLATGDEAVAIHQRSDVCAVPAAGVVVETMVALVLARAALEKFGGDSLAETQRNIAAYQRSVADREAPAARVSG

Compound	Inhibitory rate [1] [%]	IC50 (HepG2 cells; MTT, 2-days incubation) [µM]	SI (IC50/MIC) HepG2 (HepG2 cells)	selectivity index (HepG2 cells)	MIC (Mtb CDC1551; [7]) [µM]	SI (IC50/MIC) Vero (Vero cells)	IC50 (Vero cells; MTT, 2-days incubation) [µM]	IC50 (THP-1 cells; [8]) [µM]	SI (IC50/MIC) THP-1 (THP-1 cells)	inhibition of PNP ([3]; aurone 50 μM)	inhibition at 100 µM [1] [%]	IC50 [4] [µM]	Mtb CFU compared to the initial intracellular Mtb load (0 h) ([2]; 50 μM)	CFUs of intracellular Mtb at 48 h compared to before treatment (0 h) [2]	Mtb load in the lungs of infected mice [5]	further results
CC(=O)N1/C(=C\c2ccc[nH]2)C(=O)c2ccccc21 [AA5A]	69.93 ± 10.09															
Cc1cc2c(cc1C)C(=O)C(=Cc1ccc(N(C)C)cc1)O2 [Aurone 9510]		451	18.06	> 10	25 (≈ 7.33 µg/mL)	35.69	892	693	27.71	do not inhibit	83.1 ± 1.62	15.1 ± 1.68				intracellular Mtb replication ([2]; 25 μM, at 48 h): did not fully inhibit
CN(C)c1ccc(C=C2Oc3cc(Br)ccc3C2=O)cc1 [Aurone 9504]			126.40	> 10		87.98			100.50	do not inhibit	88.29 ± 0.16	17.1 ± 1.07	reduced Mtb CFU significantly	did not increase	significantly reduced	IC50 (HepG2 cells): 790 µM; MIC (Mtb CDC1551): 6.25 µM (≈ 2.15 µg/mL); IC50 (Vero cells): 550 µM; IC50 (THP-1 cells): 628 µM
CC(=O)N1/C(=C\c2ccc(CO)o2)C(=O)c2ccccc21 [AA4A]	66.18 ± 0.98															
O=C1C(=Cc2ccccc2)Nc2ccccc21 [AA8]		399	7.99		50 (≈ 11.1 µg/mL)	5.58	279	504	10.08		71.9 ± 2	50.3 ± 8.61		did not increase	significantly reduced	inhibition of PNP ([3]; aurone 200 μM): do not inhibit
CO[C@H]1/C=C/O[C@@]2(C)Oc3c(C)c(O)c4c(O)c(c(/C=N/N5CCN(C)CC5)c(O)c4c3C2=O)NC(=O)/C(C)=C\C=C\[C@H](C)[C@H](O)[C@@H](C)[C@@H](O)[C@@H](C)[C@H](OC(C)=O)[C@@H]1C [RIF, rifampicin, reference compound]		4.56			0.5 (≈ 0.411 µg/mL)		22.8	15								CFU reduction in bacterial burden in the lungs (Mtb): ~1 log10 CFU
CC(=O)N1/C(=C\c2ccccc2O)C(=O)c2ccccc21 [AA3A]	41.32 ± 9.99															
CN(C)c1ccc(C=C2Oc3c(Br)cccc3C2=O)cc1 [Aurone 9505]		29.3	2.34		12.5 (≈ 4.3 µg/mL)	38.34	479	219	17.56	do not inhibit	84.4 ± 2.99	24.5 ± 9.44	reduced Mtb CFU significantly	did not increase		Mtb CFU compared to the initial intracellular Mtb load (0 h) ([2]; 25 μM): reduced Mtb CFU significantly
CN(C)c1ccc(C=C2Oc3cc(Cl)ccc3C2=O)cc1 [Aurone 9501]			15.85	> 10		44.50			12.98	do not inhibit	85 ± 2.24	5.36 ± 1.65	reduced Mtb CFU significantly	did not increase	significantly reduced	IC50 (HepG2 cells): 396 µM; MIC (Mtb CDC1551): 25 µM (≈ 7.49 µg/mL); CC50 at 48 h [6]: 1110 µM; IC50 (THP-1 cells): 325 µM
CC(=O)N1C(=Cc2ccccc2Br)C(=O)c2ccccc21 [AA2A]		118	4.71		25 (≈ 8.55 µg/mL)	5.13	128	110	4.39		85.95 ± 0.38	24.1 ± 0.55	reduced Mtb CFU significantly	did not increase	significantly reduced	inhibition of PNP ([3]; aurone 200 μM): do not inhibit
